Measurements: patent US20200011856A1, “Method for Determining the Effectiveness of Treatment for the Prevention of Heartworm Disease” (priority 2017, published 2020)
Where “and” joins values, the source holds several entries; their conditions need not be identical. Identical values can stand only once.

What was measured:
[1] = test system: Strongyloides stercoralis; experiment: Strongyloides stercoralis L3 infection of NSG mice with or without MPA, treatment, counts of adult worms, L1 and L3; details: 6 weeks post-injection; for Adult S. stercoralis recovery counts (individual mice) / Adult S. stercoralis recovery counts, mean / L1 S. stercoralis recovery counts (individual mice) / L1 S. stercoralis recovery counts, mean / L3 S. stercoralis recovery counts (individual mice) / L3 S. stercoralis recovery counts, mean: 5000 L3 s.c.
Description: NSG mice infected by subcutaneous injection with 5000 S. stercoralis L3 larvae, either with or without MPA. […] Adult worms, L1 larvae, or L3 larvae were counted in the mice at 6 weeks post-injection.

[2] = test system: Dirofilaria immitis (Merial worms, UC strain); experiment: D. immitis L3 infection of NSG mice with Merial worms / UC strain, treatment, recovery and count of worms; format: in vivo
[3] = test system: Dirofilaria immitis; experiment: D. immitis L3 infection of NSG mice (FR3 Missouri strain or strain not stated), treatment, recovery and count of worms at necropsy; format: in vivo
[4] = IVM Control: 3 mg/kg IVM days 1, 15, 30, without MPA
[5] = IVM/MPA: 3 mg/kg IVM days 1, 15, 30, with MPA (hyperinfection)

CC[C@H](C)[C@H]1O[C@]2(CC[C@@H]1C)C[C@@H]1C[C@@H](C/C=C(\C)[C@@H](O[C@H]3C[C@H](OC)[C@@H](O[C@H]4C[C@H](OC)[C@@H](O)[C@H](C)O4)[C@H](C)O3)[C@@H](C)/C=C/C=C3\CO[C@@H]4[C@H](O)C(C)=C[C@@H](C(=O)O1)[C@]34O)O2 [IVM, ivermectin]
Adult S. stercoralis recovery counts (individual mice) [1, 4]: 0 | Adult S. stercoralis recovery counts, mean [1, 4]: 0 | L1 S. stercoralis recovery counts (individual mice) [1, 4]: 0 | L1 S. stercoralis recovery counts, mean [1, 4]: 0 | L3 S. stercoralis recovery counts (individual mice) [1, 4]: 6 and 9 and 26 and 210 and 2 | L3 S. stercoralis recovery counts, mean [1, 4]: 51 | Adult S. stercoralis recovery counts (individual mice) [1, 5]: 0 | Adult S. stercoralis recovery counts, mean [1, 5]: 0 | L1 S. stercoralis recovery counts (individual mice) [1, 5]: 0 | L1 S. stercoralis recovery counts, mean [1, 5]: 0 | L3 S. stercoralis recovery counts (individual mice) [1, 5]: 19 and 24 and 4 and 13 and 25 and 16 and 40 and 38 | L3 S. stercoralis recovery counts, mean [1, 5]: 22 | Circulating L3 ([1]; NSG mice, 5000 S. stercoralis L3 SC, with or without MPA, 3 mg/kg on days 1, 15, and 30): reduced the circulating L3 | % Red ([2]; in vivo, 3 mg/kg): 47% | Mean % Rec ([2]; in vivo, 3 mg/kg): 18% | Mean Survival ([2]; in vivo, 3 mg/kg): 9 | % Rec, Mean ([3]; in vivo): 1% and 4% and 2% | Mean % Rec ([3]; in vivo): 6% | Mean Survival ([3]; in vivo): 3 | HW parasite load (normalized percent larva recovery, FIG. 2) ([3]; in vivo, po, 3 mg/kg): significantly reduced HW parasite load

C[C@H]1OC(=O)[C@H](CC(C)(C)C)N(C)C(=O)[C@@H](Cc2ccc(C3CCOCC3)cc2)OC(=O)[C@H](CC(C)(C)F)N(C)C(=O)[C@@H](C)OC(=O)[C@H](CC(C)(C)C)N(C)C(=O)[C@@H](Cc2ccc(C3CCOCC3)cc2)OC(=O)[C@H](CC(C)(C)F)N(C)C1=O [compound 4838]
% Rec, Mean ([2]; 4838 1 mg/kg Days 1, 15, 30, 50 Di L3 (UC Strain) per NSG mouse, recovery Days 41 to 43, group mean): 9% | % Rec ([2]; 4838 1 mg/kg Days 1, 15, 30, 50 Di L3 (UC Strain) per NSG mouse, recovery Days 41 to 43, individual mice, 1 mg/kg): 10% and 14% and 8% and 20% and 6% (2×) and 2% | % Red ([2]; 4838 1 mg/kg Days 1, 15, 30, 50 Di L3 (UC Strain) per NSG mouse, vs Control): 75% | % Rec, Mean ([2]; 4838 5 mg/kg Days 1, 15, 30, 50 Di L3 (UC Strain) per NSG mouse, recovery Days 41 to 43, group mean): 2% | % Rec ([2]; 4838 5 mg/kg Days 1, 15, 30, 50 Di L3 (UC Strain) per NSG mouse, recovery Days 41 to 43, individual mice, 5 mg/kg): 2% (4×) and 0% and 4% (2×) | % Red ([2]; 4838 5 mg/kg Days 1, 15, 30, 50 Di L3 (UC Strain) per NSG mouse, vs Control): 94% | % Red ([2]; NSG mice, 50 Di L3 Merial worms, 1 mg/kg on Days 1, 15, and 30, recovery Days 41 to 43): 38% | % Red ([2]; NSG mice, 50 Di L3 UC strain, High Dose 5 mg/kg on Days 1, 15, and 30, recovery Days 41 and 42): 92% | % Red ([2]; NSG mice, 50 Di L3 UC strain, Normal Dose 1 mg/kg on Days 1, 15, and 30, recovery Days 41 and 42): 58% | Mean % Rec ([2]; group mean, NSG mice, 50 Di L3 Merial worms, 1 mg/kg on Days 1, 15, and 30, recovery Days 41 to 43): 21% | Mean % Rec ([2]; group mean, NSG mice, 50 Di L3 UC strain, High Dose 5 mg/kg on Days 1, 15, and 30, recovery Days 41 and 42): 3% | Mean % Rec ([2]; group mean, NSG mice, 50 Di L3 UC strain, Normal Dose 1 mg/kg on Days 1, 15, and 30, recovery Days 41 and 42): 15% | Mean Survival ([2]; in vivo, 1 mg/kg): 10 and 8 | Survival, Mean ([2]; in vivo, 1 mg/kg): 5 | Mean Survival ([2]; in vivo, 5 mg/kg): 1 | Survival, Mean ([2]; in vivo, 5 mg/kg): 1 | % Rec ([2]; individual mouse, NSG mice, 50 Di L3 Merial worms, 1 mg/kg on Days 1, 15, and 30, recovery Days 41 to 43, 1 mg/kg): 20% (3×) and 12% and 24% and 16% (2×) and 36% | % Rec ([2]; individual mouse, NSG mice, 50 Di L3 UC strain, High Dose 5 mg/kg on Days 1, 15, and 30, recovery Days 41 and 42, 5 mg/kg): 4% (4×) and 0% and 2% (2×) | % Rec ([2]; individual mouse, NSG mice, 50 Di L3 UC strain, Normal Dose 1 mg/kg on Days 1, 15, and 30, recovery Days 41 and 42, 1 mg/kg): 14% (3×) and 16% (3×) and 18% | % Red ([3]; 4838 1 mg/kg days 1, 15, 30, 50 Di L3 (FR3 worms) per NSG mouse, Table 17, vs Control): % Red: 50% | % Rec, Mean ([3]; 4838 1 mg/kg days 1, 15, 30, 50 Di L3 (FR3 worms) per NSG mouse, recovery Days 41 and 42, Table 17, group mean): 14% | % Rec ([3]; 4838 1 mg/kg days 1, 15, 30, 50 Di L3 (FR3 worms) per NSG mouse, recovery Days 41 and 42, Table 17, individual mice, 1 mg/kg): 10% (2×) and 20% and 16% (2×) and 12% (2×) | % Red ([3]; 4838 2.5 mg/kg days 1, 15, 30, 50 Di L3 (FR3 worms) per NSG mouse, Table 17, vs Control): % Red: 76% | % Rec, Mean ([3]; 4838 2.5 mg/kg days 1, 15, 30, 50 Di L3 (FR3 worms) per NSG mouse, recovery Days 41 and 42, Table 17, group mean): 6% | % Rec ([3]; 4838 2.5 mg/kg days 1, 15, 30, 50 Di L3 (FR3 worms) per NSG mouse, recovery Days 41 and 42, Table 17, individual mice, 2.5 mg/kg): 2% and 12% and 4% (3×) and 10% and 8% | % Red ([3]; 4838 5 mg/kg days 1, 15, 30, 50 Di L3 (FR3 worms) per NSG mouse, Table 17, vs Control): % Red: 93% | % Rec, Mean ([3]; 4838 5 mg/kg days 1, 15, 30, 50 Di L3 (FR3 worms) per NSG mouse, recovery Days 41 and 42, Table 17, group mean): 2% | % Rec ([3]; 4838 5 mg/kg days 1, 15, 30, 50 Di L3 (FR3 worms) per NSG mouse, recovery Days 41 and 42, Table 17, individual mice, 5 mg/kg): 0% (4×) and 4% (3×) | % Red ([3]; 4838 10 mg/kg Days 1, 15, 30, 50 Di L3 per NSG mouse, Table 14, vs Control): 100% | % Rec, Mean ([3]; 4838 10 mg/kg Days 1, 15, 30, 50 Di L3 per NSG mouse, recovery Days 41 to 42, Table 14, group mean): 0% | % Rec ([3]; 4838 10 mg/kg Days 1, 15, 30, 50 Di L3 per NSG mouse, recovery Days 41 to 42, Table 14, individual mice): 0% | % Red ([3]; 4838 10 mg/kg days 1, 15, 30, 50 Di L3 (FR3 worms) per NSG mouse, Table 17, vs Control): % Red: 99% | % Rec, Mean ([3]; 4838 10 mg/kg days 1, 15, 30, 50 Di L3 (FR3 worms) per NSG mouse, recovery Days 41 and 42, Table 17, group mean): 0.29% | % Rec ([3]; 4838 10 mg/kg days 1, 15, 30, 50 Di L3 (FR3 worms) per NSG mouse, recovery Days 41 and 42, Table 17, individual mice, 10 mg/kg): 0% (6×) and 2% | % Red ([3]; 4838 .5 mg/kg days 1, 15, 30, 50 Di L3 (FR3 worms) per NSG mouse, Table 17, vs Control): % Red: 36% | % Rec, Mean ([3]; 4838 .5 mg/kg days 1, 15, 30, 50 Di L3 (FR3 worms) per NSG mouse, recovery Days 41 and 42, Table 17, group mean): 18% | % Rec ([3]; 4838 .5 mg/kg days 1, 15, 30, 50 Di L3 (FR3 worms) per NSG mouse, recovery Days 41 and 42, Table 17, individual mice): 22% and 8% (2×) and 34% and 16% and 12% and 28% | % Red ([3]; Table 9, NSG mice, 50 Di L3, 1 mg/kg on Days 1, 15, and 30, recovery Days 41 to 43): 24% | Mean % Rec ([3]; Table 9, group mean, NSG mice, 50 Di L3, 1 mg/kg on Days 1, 15, and 30, recovery Days 41 to 43): 25% | % Rec ([3]; Table 9, individual mouse, NSG mice, 50 Di L3, 1 mg/kg on Days 1, 15, and 30, recovery Days 41 to 43): 26% and 30% (2×) and 12% and 14% and 32% | % Red ([3]; Table 11, NSG mice, 50 Di L3, 1 mg/kg on Days 1, 15, and 30, recovery Days 41 to 42): 21% | % Red ([3]; Table 11, NSG mice, 50 Di L3, 5 mg/kg on Days 1, 15, and 30, recovery Days 41 to 42): 92% | Mean % Rec ([3]; Table 11, group mean, NSG mice, 50 Di L3, 1 mg/kg on Days 1, 15, and 30, recovery Days 41 to 42): 19% | Mean % Rec ([3]; Table 11, group mean, NSG mice, 50 Di L3, 5 mg/kg on Days 1, 15, and 30, recovery Days 41 to 42): 2% | % Rec ([3]; Table 11, individual mouse, NSG mice, 50 Di L3, 1 mg/kg on Days 1, 15, and 30, recovery Days 41 to 42): 20% and 12% and 8% and 30% and 28% and 18% | % Rec ([3]; Table 11, individual mouse, NSG mice, 50 Di L3, 5 mg/kg on Days 1, 15, and 30, recovery Days 41 to 42): 4% (2×) and 2% (3×) and 0% | Survival, Mean ([3]; in vivo): 9 | Survival ([3]; in vivo, 1 mg/kg): 5 and 10 and 8 and 6 | Survival, Mean ([3]; in vivo, 1 mg/kg): 7 | Survival, Mean ([3]; in vivo, 2.5 mg/kg): 3 | Survival, Mean ([3]; in vivo, 5 mg/kg): 1 | Survival, Mean ([3]; in vivo, 10 mg/kg): 0
